Experimental data reported in ChEMBL document CHEMBL1153604, “Inhibition of Pseudomonas aeruginosa quorum sensing by AI-2 analogs” (Bioorg Med Chem Lett, 2009).
The source made the active and inactive calls. The calls are words filed in the database; no cut-off is given here.

How the values were obtained:
[1] = target: Autoinducer 2-binding periplasmic protein LuxP (Vibrio harveyi, UniProt P54300); assay: Agonist activity at Vibrio harveyi BB170 LuxP assessed as inhibition of autoinducer-2-induced quorum sensing after 5 hrs by luminescence assay; format: functional
[2] = target: Autoinducer 2-binding periplasmic protein LuxP (Vibrio harveyi) (UniProt P54300); assay: Agonist activity at Vibrio harveyi MM30 LuxP assessed as inhibition of autoinducer-2-induced quorum sensing; format: functional
Pseudomonas aeruginosa [3] = assay: Inhibition of wild type Pseudomonas aeruginosa PAO1 growth at 100 uM; format: functional, organism-based
Pseudomonas aeruginosa [4] = assay: Inhibition of Pseudomonas aeruginosa PAO-JP2-luxCDABE quorm sensing at 200 uM measured every 20 min by luminescence assay in presence of 3-oxo-C12-HSL
[5] = test system: Pseudomonas aeruginosa PAO1; assay: Inhibition of wild type Pseudomonas aeruginosa PAO1-luxCDABE quorm sensing measured after 20 mins by luminescence assay
[6] = test system: Pseudomonas aeruginosa PAO1; assay: Inhibition of wild type Pseudomonas aeruginosa PAO1 assessed as reduction in pyocyanin production at 100 uM after 19 hrs […]; design: scale not given: the % may be the effect or the level left
Pseudomonas aeruginosa [7] = assay: Inhibition of Pseudomonas aeruginosa PAO-JP2-luxCDABE quorm sensing measured every 20 mins in presence of 3-oxo-C12-HSL
Pseudomonas aeruginosa [8] = assay: Inhibition of wild type Pseudomonas aeruginosa PAO1-luxCDABE growth at >200 uM by luminescence assay; format: functional, organism-based

Sequence of Autoinducer 2-binding periplasmic protein LuxP (P54300 whole entry): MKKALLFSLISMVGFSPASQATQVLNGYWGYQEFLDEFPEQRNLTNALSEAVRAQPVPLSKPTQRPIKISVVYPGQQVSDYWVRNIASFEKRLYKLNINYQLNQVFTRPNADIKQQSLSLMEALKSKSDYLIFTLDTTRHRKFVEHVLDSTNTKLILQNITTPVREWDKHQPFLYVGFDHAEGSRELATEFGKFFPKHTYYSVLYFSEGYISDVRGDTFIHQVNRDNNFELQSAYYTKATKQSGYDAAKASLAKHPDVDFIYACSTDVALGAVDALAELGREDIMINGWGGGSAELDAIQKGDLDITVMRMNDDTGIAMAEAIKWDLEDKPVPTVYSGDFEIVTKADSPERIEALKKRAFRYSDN
Sequence of Autoinducer 2-binding periplasmic protein LuxP (Vibrio harveyi) (P54300 whole entry): as above

SMILES | EC50 [1] [µM] | Activity [2] | inhibition (Pseudomonas aeruginosa [3]) | inhibition (Pseudomonas aeruginosa [4]) [%] | inhibition [5] [%] | Activity [6] [%] | Activity (Pseudomonas aeruginosa [7]) | inhibition (Pseudomonas aeruginosa [8])
CCCC(=O)C(=O)[C@@H](O)CO | 0.75 | inactive | inactive |  |  |  |  | 
CCCCC(=O)C(=O)[C@@H](O)CO | 1.01 | inactive |  | 40 | 40 | 59 | Dose-dependent effect | inactive
CCC(=O)C(=O)[C@@H](O)CO | 0.58 | Active | inactive |  |  |  |  | 
CC(=O)C(=O)[C@@H](O)CO | 0.15 | inactive | inactive |  |  |  |  | 
CCCCCC(=O)C(=O)[C@@H](O)CO | 1.35 | inactive |  | 40 | 40 | 53 | Dose-dependent effect | inactive
CCCCCCCC(=O)C(=O)[C@@H](O)CO | 1.81 | inactive | inactive |  |  |  |  | 
CCCCCCC(=O)C(=O)[C@@H](O)CO | 1.52 | inactive | inactive |  |  |  |  | 
